# Measured values: ChEMBL document CHEMBL5385977, “Small molecules modulating RNA splicing: a review of targets and future perspectives” (RSC Med Chem, 2024)
# Key:
# [1] = molecular target: Vascular endothelial growth factor receptor 2 (Homo sapiens, UniProt P35968); test: Inhibition of human VEGFR2 (unknown origin) incubated for 1 hrs in presence of ATP by ELISA assay
# Splicing factor 45 = molecular target: T1, Splicing factor 45 (Homo sapiens, UniProt Q96I25); test: Inhibition of His-tagged SPF45-UHM (unknown origin) (301 to 401 residues) expressed in Escherichia coli BL21 (DE3) cells by using biotinylated-RKSRWDETP as substrate preincubated for 30 mins followed by substrate addition and measured after 1 hr by AlphaScreen assay
# T1 sequence (Q96I25 whole entry): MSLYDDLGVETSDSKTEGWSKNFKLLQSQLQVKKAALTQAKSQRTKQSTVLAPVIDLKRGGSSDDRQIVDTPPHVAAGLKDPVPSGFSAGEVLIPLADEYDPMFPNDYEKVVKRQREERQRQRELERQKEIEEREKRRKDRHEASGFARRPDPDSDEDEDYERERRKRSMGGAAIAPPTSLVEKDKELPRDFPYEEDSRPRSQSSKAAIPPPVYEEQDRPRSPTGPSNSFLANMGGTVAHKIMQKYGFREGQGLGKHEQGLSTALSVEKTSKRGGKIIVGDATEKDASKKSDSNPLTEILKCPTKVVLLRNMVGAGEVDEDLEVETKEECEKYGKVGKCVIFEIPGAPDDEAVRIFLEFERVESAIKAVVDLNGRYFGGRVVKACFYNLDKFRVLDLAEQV
# [2] = molecular target: Programmed cell death protein 1/Programmed cell death 1 ligand 1 (Homo sapiens, UniProt Q15116+Q9NZQ7); test: Inhibition of PD-1/PD-L1 interaction (unknown origin) incubated for 24 hrs by HTRF assay; format: protein-complex assay
# Sequence of Programmed cell death protein 1/Programmed cell death 1 ligand 1 (Q15116 whole entry): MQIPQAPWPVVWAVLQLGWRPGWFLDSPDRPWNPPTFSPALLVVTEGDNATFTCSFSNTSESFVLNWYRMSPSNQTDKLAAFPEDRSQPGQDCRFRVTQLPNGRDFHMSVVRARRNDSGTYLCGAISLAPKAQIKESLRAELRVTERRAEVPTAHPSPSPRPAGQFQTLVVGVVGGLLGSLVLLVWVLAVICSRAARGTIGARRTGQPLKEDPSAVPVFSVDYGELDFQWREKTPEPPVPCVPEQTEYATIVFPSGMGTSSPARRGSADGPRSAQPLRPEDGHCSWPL
# Sequence of Programmed cell death protein 1/Programmed cell death 1 ligand 1 (Q9NZQ7 whole entry): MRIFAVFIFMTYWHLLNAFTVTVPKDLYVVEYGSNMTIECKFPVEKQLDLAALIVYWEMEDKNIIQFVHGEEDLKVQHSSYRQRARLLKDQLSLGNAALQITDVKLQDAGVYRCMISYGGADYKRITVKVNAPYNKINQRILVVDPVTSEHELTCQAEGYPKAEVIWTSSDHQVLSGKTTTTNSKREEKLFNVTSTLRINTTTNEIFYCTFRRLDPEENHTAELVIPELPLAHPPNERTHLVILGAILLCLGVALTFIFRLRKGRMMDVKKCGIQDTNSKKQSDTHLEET
# [3] = Inhibition of N-terminal His-tagged U2AF35-UHM (unknown origin) expressed in Escherichia coli Rosetta cells (DE3) incubated for 1 hr by HTRF method; parameters: species or system Homo sapiens
# Sequence of Vascular endothelial growth factor receptor 2 (P35968 whole entry, the tested form may be a part): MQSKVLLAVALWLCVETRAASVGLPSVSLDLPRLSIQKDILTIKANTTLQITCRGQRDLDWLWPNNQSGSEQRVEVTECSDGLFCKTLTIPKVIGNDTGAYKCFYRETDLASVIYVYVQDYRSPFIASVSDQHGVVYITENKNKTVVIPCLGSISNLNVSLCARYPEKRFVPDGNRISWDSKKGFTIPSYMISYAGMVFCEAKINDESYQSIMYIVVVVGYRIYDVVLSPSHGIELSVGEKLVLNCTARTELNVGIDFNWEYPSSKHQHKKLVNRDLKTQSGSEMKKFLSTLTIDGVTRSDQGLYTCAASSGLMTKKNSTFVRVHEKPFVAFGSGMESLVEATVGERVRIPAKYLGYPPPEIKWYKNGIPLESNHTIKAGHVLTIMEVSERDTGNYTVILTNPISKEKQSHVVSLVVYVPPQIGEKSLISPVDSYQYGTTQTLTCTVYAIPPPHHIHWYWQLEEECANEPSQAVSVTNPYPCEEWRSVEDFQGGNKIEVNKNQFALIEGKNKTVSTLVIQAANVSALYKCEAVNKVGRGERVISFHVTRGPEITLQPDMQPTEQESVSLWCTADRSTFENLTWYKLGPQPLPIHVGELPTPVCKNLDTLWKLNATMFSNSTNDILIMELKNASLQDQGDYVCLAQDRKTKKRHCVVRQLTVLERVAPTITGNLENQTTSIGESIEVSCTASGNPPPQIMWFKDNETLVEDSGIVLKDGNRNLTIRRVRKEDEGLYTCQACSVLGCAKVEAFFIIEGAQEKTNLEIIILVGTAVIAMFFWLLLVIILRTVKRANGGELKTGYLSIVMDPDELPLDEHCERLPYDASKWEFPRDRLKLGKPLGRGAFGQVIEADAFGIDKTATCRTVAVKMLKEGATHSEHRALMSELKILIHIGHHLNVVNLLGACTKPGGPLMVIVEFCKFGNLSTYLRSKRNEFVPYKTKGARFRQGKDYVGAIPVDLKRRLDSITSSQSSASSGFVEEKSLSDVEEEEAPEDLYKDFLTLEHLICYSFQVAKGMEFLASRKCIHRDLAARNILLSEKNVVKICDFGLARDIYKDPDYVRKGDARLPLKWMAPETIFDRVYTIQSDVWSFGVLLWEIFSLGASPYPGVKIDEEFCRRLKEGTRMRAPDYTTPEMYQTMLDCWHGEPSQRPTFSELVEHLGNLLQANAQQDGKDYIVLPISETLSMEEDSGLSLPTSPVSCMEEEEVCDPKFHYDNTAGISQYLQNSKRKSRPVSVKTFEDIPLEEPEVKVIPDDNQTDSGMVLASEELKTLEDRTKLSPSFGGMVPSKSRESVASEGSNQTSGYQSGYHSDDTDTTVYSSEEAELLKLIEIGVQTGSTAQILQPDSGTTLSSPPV
smiles,measurement,setting,value
O=C(Nc1cc(C(F)(F)F)ccc1N1CCCCC1)c1ccncc1,IC50,[1],0.96 µM
COc1cc2c(cc1OC)N(CCCN1CCN(CCO)CC1)c1cc(Cl)ccc1S2,IC50,Splicing factor 45,10.4 µM
same,IC50,[2],9.2 µM
CC(CCc1c[nH]c2ccccc12)N1C[C@H]2CC[C@@H](C1)C2N (some centres undefined),IC50,[3],74.9 µM
